Calls of active or inactive are those of the source.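 Rule for the calls: active = score above 15, the percent gain in GFP-over-time curve area versus untreated cells across six hours; inactive = the rest.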 Peptide text beside a SMILES is read from it. * marks the point of attachment. Cbz = O=C(OCc1ccccc1)*
Tested on: yeast RJD 2456 GFP degradation, flow cytometry
Assay: PubChem AID 1207
Conditions: at 150 µM; active compounds read high

With CC(=O)N1C(=O)C(=C2C=C(C)OC(C)=C2)c2ccccc21 the GFP remaining was 0.705% (inactive).

In the case of CC(C)C[C@@H](C=O)NC(=O)[C@H](CC(C)C)NC(=O)[C@H](CC(C)C)NC(=O)OCc1ccccc1 (Cbz-Leu-Leu-Leu-aldehyde), the GFP remaining was 1.91% (inactive).
